Laboratory results from patent US20240376084A1, “INHIBITORS OF ALPHA-HEMOLYSIN OF STAPHYLOCOCCUS AUREUS” (Helmholtz-Zentrum Fur Infektionsforschung GmbH, priority 2021, published 2024).

Key:
[1] = biological target: hemolysin alpha from Staphylococcus aureus (Staphylococcus aureus, UniProt P09616); test: cell-based
[2] = biological target: S. aureus Alpha hemolysin (Staphylococcus aureus, UniProt P09616); test: cell-based; conditions: A549-LDH Assay activity
Sequence of S. aureus Alpha hemolysin (P09616 27-319 limits assumed): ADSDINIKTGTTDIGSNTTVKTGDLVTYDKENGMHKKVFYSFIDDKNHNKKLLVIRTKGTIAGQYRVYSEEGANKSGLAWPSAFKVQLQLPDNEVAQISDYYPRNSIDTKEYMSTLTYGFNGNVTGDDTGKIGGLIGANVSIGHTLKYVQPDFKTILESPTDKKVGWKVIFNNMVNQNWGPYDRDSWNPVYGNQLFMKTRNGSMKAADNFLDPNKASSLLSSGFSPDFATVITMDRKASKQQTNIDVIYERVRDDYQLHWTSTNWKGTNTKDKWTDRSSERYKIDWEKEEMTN

Sequence of hemolysin alpha from Staphylococcus aureus (P09616 27-319 limits assumed): as above

Work on `Cc1ccccc1-c1ccc(NS(=O)(=O)c2cc3[nH]c(=O)c(=O)[nH]c3cc2C)cc1Cl` [Compound 90, N-(2-chloro-2′-methyl-[1,1′-biphenyl]-4-yl)-7-methyl-2,3-dioxo-1,2,3,4-tetrahydroquinoxaline-6-sulfonamide] yielded an IC50 [1] of 0.1 to 1 µM and an EC50 [2] of 0.1 to 1 µM.

With `Cc1cc2[nH]c(=O)c(=O)[nH]c2cc1S(=O)(=O)Nc1ccc(-c2ccc(C#N)cc2)c(Cl)c1` [Compound 376, N-[3-chloro-4-(4-cyanophenyl)phenyl]-7-methyl-2,3-dioxo-1,4-dihydroquinoxaline-6-sulfonamide] the EC50 [1] was less than 0.03 µM and the EC50 [2] was 0.03 to 0.1 µM.

Compound `C#Cc1cc(NS(=O)(=O)c2cc3[nH]c(=O)c(=O)[nH]c3cc2C)ccc1-c1ccc(C#N)cc1` [Compound 253, N-[4-(4-cyanophenyl)-3-ethynyl-phenyl]-7-methyl-2,3-dioxo-1,4-dihydroquinoxaline-6-sulfonamide] has an EC50 [1] of less than 0.03 µM and an EC50 [2] of 0.03 to 0.1 µM.

`Cc1cc2[nH]c(=O)c(=O)[nH]c2cc1S(=O)(=O)Nc1ccc(-c2ccc(C(F)(F)F)nc2)c(Cl)c1` [Compound 275, N-[3-chloro-4-[6-(trifluoromethyl)-3-pyridyl]phenyl]-7-methyl-2,3-dioxo-1,4-dihydroquinoxaline-6-sulfonamide] gave an EC50 [1] of 0.1 to 1 µM and an EC50 [2] of 1 to 6 µM.

Compound `Cc1cc2[nH]c(=O)c(=O)[nH]c2cc1S(=O)(=O)Nc1ccc(-n2ccnc2)c(Cl)c1` [Compound 285, N-(3-chloro-4-imidazol-1-yl-phenyl)-7-methyl-2,3-dioxo-1,4-dihydroquinoxaline-6-sulfonamide] has an EC50 [1] of 0.1 to 1 µM and an EC50 [2] of 0.1 to 1 µM.

`Cc1cc(NS(=O)(=O)c2cc3[nH]c(=O)c(=O)[nH]c3cc2C)ccc1C(C)C` [Compound 117, N-(4-isopropyl-3-methylphenyl)-7-methyl-2,3-dioxo-1,2,3,4-tetrahydroquinoxaline-6-sulfonamide] showed an IC50 [1] of 0.1 to 1 µM and an EC50 [2] of 0.1 to 1 µM.

`Cc1cc2[nH]c(=O)c(=O)[nH]c2cc1S(=O)(=O)Nc1ccc(-c2ccc3c(c2)CCN3C)c(Cl)c1` [Compound 341, N-[3-chloro-4-(1-methylindolin-5-yl)phenyl]-7-methyl-2,3-dioxo-1,4-dihydroquinoxaline-6-sulfonamide] was tested, and the EC50 [1] was 0.1 to 1 µM and the EC50 [2] was 1 to 6 µM.

In the case of `Cc1cc2[nH]c(=O)c(=O)[nH]c2cc1S(=O)(=O)Nc1ccc(-c2cccc(N3CCN(C)CC3)c2)c(Cl)c1` [Compound 330, N-[3-chloro-4-[3-(4-methylpiperazin-1-yl)phenyl]phenyl]-7-methyl-2,3-dioxo-1,4-dihydroquinoxaline-6-sulfonamide], the EC50 [1] is reported as 0.1 to 1 µM and the EC50 [2] is reported as 0.1 to 1 µM.

`O=c1[nH]c2cc(F)c(S(=O)(=O)Nc3ccc(-c4ccncc4)c(Cl)c3)cc2[nH]c1=O` [Compound 150, N-(3-chloro-4-(pyridin-4-yl)phenyl)-7-fluoro-2,3-dioxo-1,2,3,4-tetrahydroquinoxaline-6-sulfonamide] showed an IC50 [1] of 0.1 to 1 µM and an EC50 [2] of 0.1 to 1 µM.

`Cc1cc2[nH]c(=O)c(=O)[nH]c2cc1S(=O)(=O)Nc1ccc(-c2ccc3c(c2)OCO3)c(Cl)c1` [Compound 247, N-[4-(1,3-benzodioxol-5-yl)-3-chloro-phenyl]-7-methyl-2,3-dioxo-1,4-dihydroquinoxaline-6-sulfonamide] gave an EC50 [1] of less than 0.03 µM and an EC50 [2] of 0.03 to 0.1 µM.

`Cc1cc2[nH]c(=O)c(=O)[nH]c2cc1S(=O)(=O)Nc1ccc(-c2ccc(C(F)(F)F)cc2)c(Cl)c1` [Compound 317, N-[3-chloro-4-[4-(trifluoromethyl)phenyl]phenyl]-7-methyl-2,3-dioxo-1,4-dihydroquinoxaline-6-sulfonamide] was tested, and the EC50 [1] was 0.1 to 1 µM and the EC50 [2] was 1 to 6 µM.

`CCc1ccccc1-c1c(C)cc(NS(=O)(=O)c2cc3[nH]c(=O)c(=O)[nH]c3cc2C)cc1C` [Compound 134, N-(2′-ethyl-2,6-dimethyl-[1,1′-biphenyl]-4-yl)-7-methyl-2,3-dioxo-1,2,3,4-tetrahydroquinoxaline-6-sulfonamide] was tested, and the IC50 [1] was 0.1 to 1 µM and the EC50 [2] was 0.03 to 0.1 µM.

Compound `Cc1cc(NS(=O)(=O)c2cc3[nH]c(=O)c(=O)[nH]c3cc2C)ccc1OC(F)(F)F` [Compound 323, 7-methyl-N-[3-methyl-4-(trifluoromethoxy)phenyl]-2,3-dioxo-1,4-dihydroquinoxaline-6-sulfonamide] has an EC50 [1] of 0.03 to 0.1 µM and an EC50 [2] of less than 0.03 µM.

`CN(C)c1cccc(-c2ccc(NS(=O)(=O)c3cc4[nH]c(=O)c(=O)[nH]c4cc3F)cc2Cl)c1` [Compound 34, N-(2-chloro-3′-(dimethylamino)-[1,1′-biphenyl]-4-yl)-7-fluoro-2,3-dioxo-1,2,3,4-tetrahydroquinoxaline-6-sulfonamide] gave an IC50 [1] of less than 0.03 µM and an EC50 [2] of 0.1 to 1 µM.

For `Cc1nc2ccc(-c3ccc(NS(=O)(=O)c4cc5[nH]c(=O)c(=O)[nH]c5cc4C)cc3Cl)cc2[nH]1` [Compound 361, N-[3-chloro-4-(2-methyl-3H-benzimidazol-5-yl)phenyl]-7-methyl-2,3-dioxo-1,4-dihydroquinoxaline-6-sulfonamide], the EC50 [1] was 0.03 to 0.1 µM and the EC50 [2] was less than 0.03 µM.

`Cc1cc2[nH]c(=O)c(=O)[nH]c2cc1S(=O)(=O)Nc1ccc(-c2ccc(F)c(F)c2F)c(Cl)c1` [Compound 307, N-[3-chloro-4-(2,3,4-trifluorophenyl)phenyl]-7-methyl-2,3-dioxo-1,4-dihydroquinoxaline-6-sulfonamide] showed an EC50 [1] of 0.03 to 0.1 µM and an EC50 [2] of 0.03 to 0.1 µM.

`Cc1cc2[nH]c(=O)c(=O)[nH]c2cc1S(=O)(=O)Nc1ccc(-c2ccc(OC(C)C)nc2)c(Cl)c1` [Compound 291, N-[3-chloro-4-(6-isopropoxy-3-pyridyl)phenyl]-7-methyl-2,3-dioxo-1,4-dihydroquinoxaline-6-sulfonamide] gave an EC50 [1] of 0.1 to 1 µM and an EC50 [2] of 0.1 to 1 µM.

Work on `O=c1[nH]c2cc(Cl)c(S(=O)(=O)Nc3ccc(C4CC4)cc3)cc2[nH]c1=O` [Compound 85, 7-chloro-N-(4-cyclopropylphenyl)-2,3-dioxo-1,2,3,4-tetrahydroquinoxaline-6-sulfonamide] yielded an IC50 [1] of 0.1 to 1 µM and an EC50 [2] of 0.03 to 0.1 µM.

With `Cc1cc2[nH]c(=O)c(=O)[nH]c2cc1S(=O)(=O)Nc1ccc(N2CCOCC2)c(Br)c1` [Compound 128, N-(3-bromo-4-morpholinophenyl)-7-methyl-2,3-dioxo-1,2,3,4-tetrahydroquinoxaline-6-sulfonamide] the IC50 [1] was 0.1 to 1 µM and the EC50 [2] was 0.1 to 1 µM.

Compound `Cc1cc2[nH]c(=O)c(=O)[nH]c2cc1S(=O)(=O)Nc1cnc(-c2cncc(Cl)c2)c(Cl)c1` [Compound 279, N-[5-chloro-6-(5-chloro-3-pyridyl)-3-pyridyl]-7-methyl-2,3-dioxo-1,4-dihydroquinoxaline-6-sulfonamide] has an EC50 [1] of 0.1 to 1 µM and an EC50 [2] of 0.1 to 1 µM.

Work on `Cc1cc2[nH]c(=O)c(=O)[nH]c2cc1S(=O)(=O)Nc1ccc(-c2ccc3c(c2)OCCO3)c(Cl)c1` [Compound 259, N-[3-chloro-4-(2,3-dihydro-1,4-benzodioxin-6-yl)phenyl]-7-methyl-2,3-dioxo-1,4-dihydroquinoxaline-6-sulfonamide] yielded an EC50 [1] of less than 0.03 µM and an EC50 [2] of 0.1 to 1 µM.

Compound `O=c1[nH]c2cc(F)c(S(=O)(=O)Nc3ccc(-c4ccccc4)c(Cl)c3)cc2[nH]c1=O` [Compound 40, N-(2-chloro-[1,1′-biphenyl]-4-yl)-7-fluoro-2,3-dioxo-1,2,3,4-tetrahydroquinoxaline-6-sulfonamide] has an IC50 [1] of 0.03 to 0.1 µM and an EC50 [2] of 0.1 to 1 µM.

`Cc1ccccc1-c1ccc(NS(=O)(=O)c2cc3[nH]c(=O)c(=O)[nH]c3cc2C)cc1` [Compound 89, 7-methyl-N-(2′-methyl-[1,1′-biphenyl]-4-yl)-2,3-dioxo-1,2,3,4-tetrahydroquinoxaline-6-sulfonamide] showed an IC50 [1] of 0.1 to 1 µM and an EC50 [2] of 0.1 to 1 µM.

In the case of `Cc1cc(NS(=O)(=O)c2cc3[nH]c(=O)c(=O)[nH]c3cc2C)ccc1-c1ccccc1` [Compound 17, 7-methyl-N-(2-methyl-[1,1′-biphenyl]-4-yl)-2,3-dioxo-1,2,3,4-tetrahydroquinoxaline-6-sulfonamide], the IC50 [1] is reported as less than 0.03 µM and the EC50 [2] is reported as less than 0.03 µM.

`O=c1[nH]c2cc(Cl)c(S(=O)(=O)Nc3ccc(-c4ccc(F)cc4)c(Cl)c3)cc2[nH]c1=O` [Compound 12, 7-chloro-N-(2-chloro-4′-fluoro-[1,1′-biphenyl]-4-yl)-2,3-dioxo-1,2,3,4-tetrahydroquinoxaline-6-sulfonamide] gave an IC50 [1] of less than 0.03 µM and an EC50 [2] of 0.1 to 1 µM.

`Cc1cc2[nH]c(=O)c(=O)[nH]c2cc1S(=O)(=O)Nc1ccc(-c2cccc(N)c2)c(Cl)c1` [Compound 311, N-(3′-amino-2-chloro-[1,1′-biphenyl]-4-yl)-7-methyl-2,3-dioxo-1,2,3,4-tetrahydroquinoxaline-6-sulfonamide] showed an EC50 [1] of 0.03 to 0.1 µM and an EC50 [2] of less than 0.03 µM.

In the case of `Cc1cc2[nH]c(=O)c(=O)[nH]c2cc1S(=O)(=O)Nc1ccc(-c2cc(Cl)cc(Cl)c2)c(Cl)c1` [Compound 315, N-[3-chloro-4-(3,5-dichlorophenyl)phenyl]-7-methyl-2,3-dioxo-1,4-dihydroquinoxaline-6-sulfonamide], the EC50 [1] is reported as 0.1 to 1 µM and the EC50 [2] is reported as 1 to 6 µM.

For `COc1cc(NS(=O)(=O)c2cc3[nH]c(=O)c(=O)[nH]c3cc2C)ccc1-c1ccccc1` [Compound 81, N-(2-methoxy-[1,1′-biphenyl]-4-yl)-7-methyl-2,3-dioxo-1,2,3,4-tetrahydroquinoxaline-6-sulfonamide], the IC50 [1] was 0.1 to 1 µM and the EC50 [2] was 0.1 to 1 µM.

Compound `COc1cc2[nH]c(=O)c(=O)[nH]c2cc1S(=O)(=O)Nc1ccc(OC(F)F)cc1` [Compound 391, N-[4-(difluoromethoxy)phenyl]-7-methoxy-2,3-dioxo-1,4-dihydroquinoxaline-6-sulfonamide] has an EC50 [1] of 1 to 3.5 µM and an EC50 [2] of 0.1 to 1 µM.

Compound `Cc1cc2[nH]c(=O)c(=O)[nH]c2cc1S(=O)(=O)Nc1ccc(C2CCCCC2)c(Br)c1` [Compound 306, N-(3-bromo-4-cyclohexylphenyl)-7-methyl-2,3-dioxo-1,2,3,4-tetrahydroquinoxaline-6-sulfonamide] has an EC50 [1] of 0.03 to 0.1 µM and an EC50 [2] of 0.1 to 1 µM.

Work on `O=c1[nH]c2cc(Cl)c(S(=O)(=O)Nc3ccc(-c4ccccc4F)c(Cl)c3)cc2[nH]c1=O` [Compound 25, 7-chloro-N-(2-chloro-2′-fluoro-[1,1′-biphenyl]-4-yl)-2,3-dioxo-1,2,3,4-tetrahydroquinoxaline-6-sulfonamide] yielded an IC50 [1] of less than 0.03 µM and an EC50 [2] of 0.1 to 1 µM.
